In patent US8575143B2, “3-aryl-substituted quinazolones, and uses thereof” (Prolexys Pharmaceuticals, Inc., priority 2005, dated 2013):
Like-named read-outs stand apart in the source and are kept apart here.

Columns and labels:
[1] = test system: HT-1080 cells; assay: Sytox assay, inhibition of growth of HT-1080 cells; type: cell-based; conditions: Homo sapiens, 48 hours exposure
Experimental: The ability of Compound 1, in DMSO, to inhibit the growth of tumor and normal cells was measured. The compound was assayed by the Sytox primary screen, a phenotypic assay which monitors alterations in cell survival-proliferation as a result of compound treatment. It was devised as high throughput method to identify compounds which specifically alter the growth potential of cells harboring the causative mutations found in cancer patients while not affecting the growth of normal cells. The assay relies upon an inexpensive, simple and reliable readout of a membrane impermeable fluorescent dye (Sytox, from Molecular Probes) which binds to nucleic acid. In healthy cells, no signal is detected because the cell's membrane is intact and the dye will not enter. However, if a cell's membrane is compromised as a result of apoptosis or necrosis, a fluorescent signal proportional to the number of similarly affected cells will be detected. By utilizing a two-step readout (final read in the presence of detergent to permit labeling of all cells), the assay can identify compounds which produce cytostasis, cytotoxicity and/or mitogenesis. The first read or “dead cell” read, provides an estimate of the toxicity of a given compound by indicating the number of dead or dying cells in the culture at the time of assay. The second read or “total cell” read, captures both the cumulative effects of cytoxicity in reducing the size of the cell population as well as any cytostatic or anti-proliferative effects a test compound may exert on the cells in the test population in the absence of toxicity.
Cells were seeded overnight in 96 well plates at densities that without treatment would permit 95% confluence in the wells 72 hours later. The following day, the cells were exposed to test compounds in a dilution series for a period of 48 hours. Following this incubation period, the Sytox reagent was added to the cultures at the manufacturer's recommended concentration and the dead cell fluorescence read was taken. After completion of this measurement, the detergent Saponin was added to each well of the cultures to permeabilize the membranes allowing the Sytox reagent to enter every cell, thereby facilitating measurement of the total number of cells remaining in the culture.
The ability of various compounds of the invention, in DMSO, to inhibit the growth of HT-1080 cells was measured. The HT-1080 cell line used in these experiments was derived from a patient with fibrosarcoma and harbors an activating mutation in the N-ras gene at codon 12. The compound was assayed using the assay described in Example 3. The results of the assay are shown in the table below, where the activity corresponds to the following ranges: A—less than 10 nM, B—10-100 nM, C—100-1000 nM, D—1000-2000 nM, E—greater than 2000 nM.

[2] = test system: HT-1080 xenografts; assay: HT-1080 tumor xenograft, daily IV administration for 5 days; type: in vivo; conditions: nude Balb/c mice, QD x 5 days
Experimental: The ability of compounds 10 and 25 to inhibit the growth of HT-1080 xenografts following daily, intravenous administration was examined using similar methods (described below). Compounds 10 and 25 were administered for 5 consecutive days and were evaluated at their respective IV MTD doses.
The HT-1080 cell line used in this xenograft study was derived from a patient with fibrosarcoma and harbors an activating mutation in the N-ras gene at codon 12. […] Robust tumor regression was observed when the compounds were administered at their respective MTD. No adverse clinical signs were observed
Nude Balb/c (Nu/Nu strain, Charles River Laboratories), female, 5-6 wks. old (˜22 g average body weight).
• A: Untreated Control, n=6 • B: Vehicle Control for Compound 10, QD×5 days, IV, n=6 • D: Compound 10 @ 25 mg/Kg (MTD), QD×5 days, IV, n=6 • E: Compound 10 @ 12.5 mg/Kg (½ MTD), QD×5 days, IV, n=6 Treatment Schedule: […]
Starting on Day 1, all animals were weighed, and tumor dimensions (L & W) were measured, every other day. […]
The resulting tumor volume values were averaged for each study group for each time point, and were then plotted against time. Variance was expressed as standard error of the mean (±SEM).

[3] = test system: tumor cells; assay: Sytox primary screen, inhibition of growth of tumor cells; type: cell-based; conditions: compound in DMSO, 48 hours exposure, Sytox read
Experimental: The ability of Compound 1, in DMSO, to inhibit the growth of tumor and normal cells was measured. The compound was assayed by the Sytox primary screen, a phenotypic assay which monitors alterations in cell survival-proliferation as a result of compound treatment. It was devised as high throughput method to identify compounds which specifically alter the growth potential of cells harboring the causative mutations found in cancer patients while not affecting the growth of normal cells. The assay relies upon an inexpensive, simple and reliable readout of a membrane impermeable fluorescent dye (Sytox, from Molecular Probes) which binds to nucleic acid. In healthy cells, no signal is detected because the cell's membrane is intact and the dye will not enter. However, if a cell's membrane is compromised as a result of apoptosis or necrosis, a fluorescent signal proportional to the number of similarly affected cells will be detected. By utilizing a two-step readout (final read in the presence of detergent to permit labeling of all cells), the assay can identify compounds which produce cytostasis, cytotoxicity and/or mitogenesis. The first read or “dead cell” read, provides an estimate of the toxicity of a given compound by indicating the number of dead or dying cells in the culture at the time of assay. […]

[4] = IV maximum tolerated dose (MTD); conditions: Nude Balb/c, mouse, in vivo, QD x 5 days, mice
[5] = compound in DMSO, Sytox assay of Example 3, read-out: Activity (inhibition of growth of HT-1080 cells)
[6] = Sytox read, read-out: IC50, inhibition of proliferation of HT-1080 cells

SMILES	IC50 [1, 5] [µM]	other results
O=c1c2ccccc2nc(CN2CCNCC2)n1-c1ccc(OC(F)(F)F)cc1Cl [Compound 21, 3-(2-chloro-4-(trifluoromethoxy)phenyl)-2-(piperazin-1-ylmethyl)quinazolin-4(3H)-one]	0.1 to 1	
CCOc1ccccc1-n1c(CN2CCCN(C)CC2)nc2cc(N)ccc2c1=O [Compound 25, 7-amino-3-(2-ethoxyphenyl)-2-((4-methyl-1,4-diazepan-1-yl)methyl)quinazolin-4(3H)-one]	< 0.01	inhibition in growth of HT-1080 cell xenograft [2]: inhibition in growth
CCOc1ccccc1-n1c(CN2CCCN(C)CC2)nc2cc(F)ccc2c1=O [Compound 24, 3-(2-ethoxyphenyl)-7-fluoro-2-((4-methyl-1,4-diazepan-1-yl)methyl)quinazolin-4(3H)-one]	0.1 to 1	
CCOc1ccccc1-n1c(C(C)N2CCN(C(=O)COc3ccc(Cl)cc3)CC2)nc2cc(Cl)ccc2c1=O (centres unmarked) [Compound 1, 2-(1-(4-(2-(4-chlorophenoxy)acetyl)piperazin-1-yl)ethyl)-7-chloro-3-(2-ethoxyphenyl)quinazolin-4(3H)-one]		IC50 [3]: ~10 µM
CCOc1ccccc1-n1c(CN2CCNCC2)nc2cccc(Cl)c2c1=O [Compound 2, 5-chloro-3-(2-ethoxyphenyl)-2-(piperazin-1-ylmethyl)quinazolin-4(3H)-one]	0.01 to 0.1	IC50 [1, 6]: 0.1 µM
CN1CCCN(Cc2nc3cc(N)ccc3c(=O)n2-c2ccc(F)cc2Cl)CC1 [Compound 13, 7-amino-3-(2-chloro-4-fluorophenyl)-2-((4-methyl-1,4-diazepan-1-yl)methyl)quinazolin-4(3H)-one]	> 2	
CCOc1ccccc1-n1c(CN2CCCN(C)CC2)nc2cc(NCCOC)ccc2c1=O [Compound 11, 3-(2-ethoxyphenyl)-7-(2-methoxyethylamino)-2-((4-methyl-1,4-diazepan-1-yl)methyl)quinazolin-4(3H)-one]	> 2	
CN1CCCN(Cc2nc3ccccc3c(=O)n2-c2ccc(OC(F)(F)F)cc2Cl)CC1 [Compound 20, 3-(2-chloro-4-(trifluoromethoxy)phenyl)-2-((4-methyl-1,4-diazepan-1-yl)methyl)quinazolin-4(3H)-one]	0.01 to 0.1	
CN1CCCN(Cc2nc3ccccc3c(=O)n2-c2c(F)cc(F)cc2Cl)CC1 [Compound 18, 3-(2-chloro-4,6-difluorophenyl)-2-((4-methyl-1,4-diazepan-1-yl)methyl)quinazolin-4(3H)-one]	0.1 to 1	
CN1CCCN(Cc2nc3cc(N)ccc3c(=O)n2-c2c(Cl)cccc2Cl)CC1 [Compound 22, 7-amino-3-(2,6-dichlorophenyl)-2-((4-methyl-1,4-diazepan-1-yl)methyl)quinazolin-4(3H)-one]	0.1 to 1	
CCOc1ccccc1-n1c(CN2CCCN(C)CC2)nc2cc(NCCN3CCOCC3)ccc2c1=O [Compound 15, 3-(2-ethoxyphenyl)-2-((4-methyl-1,4-diazepan-1-yl)methyl)-7-(2-morpholinoethylamino)quinazolin-4(3H)-one]	0.1 to 1	
CCOc1cc(F)ccc1-n1c(CN2CCCN(C)CC2)nc2cc(N)ccc2c1=O [Compound 19, 7-amino-3-(2-ethoxy-4-fluorophenyl)-2-((4-methyl-1,4-diazepan-1-yl)methyl)quinazolin-4(3H)-one]	< 0.01	
O=c1c2ccccc2nc(CN2CCNCC2)n1-c1c(F)cc(F)cc1Cl [Compound 17, 3-(2-chloro-4,6-difluorophenyl)-2-(piperazin-1-ylmethyl)quinazolin-4(3H)one]	0.1 to 1	
CCOc1cc([N+](=O)[O-])ccc1-n1c(CN2CCCNCC2)nc2ccccc2c1=O [Compound 3, 2-((1,4-diazepan-1-yl)methyl)-3-(2-ethoxy-4-nitrophenyl)quinazolin-4(3H)-one]	0.1 to 1	IC50 [1, 6]: 0.2 µM
CCOc1ccccc1-n1c(CN2CCCN(C)CC2)nc2cc(C(F)(F)F)ccc2c1=O [Compound 16, 3-(2-ethoxyphenyl)-2-((4-methyl-1,4-diazepan-1-yl)methyl)-7-(trifluoromethyl)quinazolin-4(3H)-one]	0.1 to 1	
Nc1ccc2c(=O)n(-c3ccc(F)cc3Cl)c(CN3CCNCC3)nc2c1 [Compound 14, 7-amino-3-(2-chloro-4-fluorophenyl)-2-(piperazin-1-ylmethyl)quinazolin-4(3H)-one]	> 2	
CCOc1ccccc1-n1c(C(C)N2CCCN(C)CC2)nc2cc([N+](=O)[O-])ccc2c1=O (centres unmarked) [Compound 12, 3-(2-ethoxyphenyl)-2-(1-(4-methyl-1,4-diazepan-1-yl)ethyl)-7-nitroquinazolin-4(3H)-one]	0.1 to 1	
CCOc1ccccc1-n1c(C(C)N2CCCN(C)CC2)nc2cc(N)ccc2c1=O (centres unmarked) [Compound 10, 7-amino-3-(2-ethoxyphenyl)-2-(1-(4-methyl-1,4-diazepan-1-yl)ethyl)quinazolin-4(3H)-one]	< 0.01	inhibition in growth of HT-1080 cell xenograft [2]: inhibition in growth; MTD at 5 days [4]: 25 mg/kg
